Results as given in patent publication US20240287070A1, “FUSED HETEROCYCLIC DERIVATIVES” (Janssen Sciences Ireland Unlimited Company, priority 2021, published 2024).

Experiments:
[1] = Human liver microsome stability; assay type: in vitro ADME; conditions: 1 μM compound, NADPH 1 mM, 37° C., 0-60 min; for HLM Metabolism t1/2: pooled human liver microsomes 0.5 mg/mL
How it was run: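 Single incubations with human liver microsomes started with 1 mM NADPH; samples taken at 0, 5, 10, 20, 40 and 60 min, quenched in acetonitrile (1:3). Cassette LC-MS analysis with internal standard; t½ derived from slope of ln peak-area ratio versus time (k = −gradient).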

[2] = system: HBV (HepG2.117 cell line, inducibly HBV producing); assay: Anti-HBV activity, intracellular HBV DNA by real-time PCR in HepG2.117 cell line; assay type: cell-based, hepatitis B virus; conditions: HepG2.117 cells, 3 days of treatment
How it was run: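 Read-out is intracellular HBV DNA, measured by real-time PCR using HBV-specific primers and probe. Cells were stable, inducible HBV-producing HepG2.117 (Tet-off). Serially diluted compound was applied for 3 days after replication was induced.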

HepG2 or HepG2.117 cells = assay: Cytotoxicity, ATPlite Luminescence Assay; assay type: cell-based, human; conditions: 3-days incubation unless marked with *
How it was run: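 Viability after compound treatment is read as ATP luminescence. Exposure lasts 3 or 4 days.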

SMILES: CC(c1ccc(C(C)(C)O)nc1)N1C[C@@H](C)n2nc3c(c2C1=O)CN(C(=O)c1ccc(Cl)c(Cl)c1)[C@H](C)C3 (single isomer, unassigned) [Compound 2B, (3R,7R)-2-(3,4-dichlorobenzoyl)-9-((S*)-1-(6-(2-hydroxypropan-2-yl)pyridin-3-yl)ethyl)-3,7-dimethyl-1,2,3,4,8,9-hexahydropyrido[4′,3′:3,4]pyrazolo[1,5-a]pyrazin-10(7H)-one]
- HLM Metabolism t1/2 [1]: 138 min
- EC50 [2]: 0.015 µM
- CC50 (HepG2 or HepG2.117 cells): > 50 µM

SMILES: CC(c1cnc(C2CC2)cn1)N1C[C@@H](C)n2nc3c(c2C1=O)CN(C(=O)c1ccc(Cl)c(Cl)c1)[C@H](C)C3 (single isomer, unassigned) [Compound 3B, (3R,7R)-9-((S*)-1-(5-cyclopropylpyrazin-2-yl)ethyl)-2-(3,4-dichlorobenzoyl)-3,7-dimethyl-1,2,3,4,8,9-hexahydropyrido[4′,3′:3,4]pyrazolo[1,5-a]pyrazin-10(7H)-one]
- HLM Metabolism t1/2 [1]: 133 min
- EC50 [2]: 0.023 µM
- CC50 (HepG2 or HepG2.117 cells): 16.4 µM

SMILES: Cc1nnnn1-c1ccc(C(C)N2C[C@@H](C)n3nc4c(c3C2=O)CN(C(=O)c2ccc(Cl)c(Cl)c2)[C@H](C)C4)cn1 (single isomer, unassigned) [Compound 27B, (3R,7R)-2-(3,4-dichlorobenzoyl)-3,7-dimethyl-9-((S*)-1-(6-(5-methyl-1H-tetrazol-1-yl)pyridin-3-yl)ethyl)-1,2,3,4,8,9-hexahydropyrido[4′,3′:3,4]pyrazolo[1,5-a]pyrazin-10(7H)-one]
- HLM Metabolism t1/2 [1]: 83.3 min
- EC50 [2]: 0.018 µM
- CC50 (HepG2 or HepG2.117 cells): > 50 µM

SMILES: CC(c1cnc(C(C)(C)O)cn1)N1C[C@@H](C)n2nc3c(c2C1=O)CN(C(=O)c1ccc(Cl)c(C(F)(F)F)c1)[C@H](C)C3 (single isomer, unassigned) [Compound 41B, (3R,7R)-2-(4-chloro-3-(trifluoromethyl)benzoyl)-9-((S*)-1-(5-(2-hydroxypropan-2-yl)pyrazin-2-yl)ethyl)-3,7-dimethyl-1,2,3,4,8,9-hexahydropyrido[4′,3′:3,4]pyrazolo[1,5-a]pyrazin-10(7H)-one]
- HLM Metabolism t1/2 [1]: 99.1 min
- EC50 [2]: 0.014 µM
- CC50 (HepG2 or HepG2.117 cells): > 50 µM

SMILES: C[C@@H]1Cc2nn3c(c2CN1C(=O)c1ccc(Cl)c(C(F)(F)F)c1)C(=O)N([C@@H](C)c1ccc([S@@](C)(=O)=NC#N)cc1)C[C@H]3C (relative stereo) [Compound 20C, N—((R*)-(4-((S*)-1-((3R,7R)-2-(4-chloro-3-(trifluoromethyl)benzoyl)-3,7-dimethyl-10-oxo-1,3,4,7,8,10-hexahydropyrido[4′,3′:3,4]pyrazolo[1,5-a]pyrazin-9(2H)-yl)ethyl)phenyl)(methyl)(oxo)-16-sulfaneylidene)cyanamide]
- HLM Metabolism t1/2 [1]: 61.5 min
- EC50 [2]: 0.016 µM
- CC50 (HepG2 or HepG2.117 cells): > 50 µM

SMILES: CC(c1cc(F)ccn1)N1C[C@@H](C)n2nc3c(c2C1=O)CN(C(=O)c1ccc(Cl)c(Cl)c1)[C@H](C)C3 (single isomer, unassigned) [Compound 32B]
- HLM Metabolism t1/2 [1]: 134 min
- EC50 [2]: 0.088 µM
- CC50 (HepG2 or HepG2.117 cells): > 50 µM

SMILES: CC(c1cnc(C(F)(F)F)nc1)N1C[C@@H](C)n2nc3c(c2C1=O)CN(C(=O)c1ccc(Cl)c(Cl)c1)[C@H](C)C3 (single isomer, unassigned) [Compound 34B, (3R,7R)-2-(3,4-dichlorobenzoyl)-3,7-dimethyl-9-((S*)-1-(2-(trifluoromethyl)pyrimidin-5-yl)ethyl)-1,2,3,4,8,9-hexahydropyrido[4′,3′:3,4]pyrazolo[1,5-a]pyrazin-10(7H)-one]
- HLM Metabolism t1/2 [1]: >180 min
- EC50 [2]: 0.052 µM
- CC50 (HepG2 or HepG2.117 cells): 34.9 µM

SMILES: CC(c1cnc(C2CC2)cn1)N1C[C@@H](C)n2nc3c(c2C1=O)CN(C(=O)c1ccc(Cl)c(Cl)c1)[C@H](C)C3 (single isomer, unassigned) [Compound 3A, (3R,7R)-9-((R*)-1-(5-cyclopropylpyrazin-2-yl)ethyl)-2-(3,4-dichlorobenzoyl)-3,7-dimethyl-1,2,3,4,8,9-hexahydropyrido[4′,3′:3,4]pyrazolo[1,5-a]pyrazin-10(7H)-one]
- half-life at 1 μM ([1]; human, pooled human liver microsomes, pH 7.4, pooled human liver microsomes 0.5 mg/mL, read-out: HLM Metabolism t1/2): > 180 min
- EC50 [2]: 0.068 µM
- CC50 (HepG2 or HepG2.117 cells): 33.7 µM

SMILES: CC(c1cnn(C(C)C)c(=O)c1)N1C[C@@H](C)n2nc3c(c2C1=O)CN(C(=O)c1ccc(Cl)c(C(F)(F)F)c1)[C@H](C)C3 (single isomer, unassigned) [Compound 53B, (3R,7R)-2-(4-chloro-3-(trifluoromethyl)benzoyl)-9-((S*)-1-(1-isopropyl-6-oxo-1,6-dihydropyridazin-4-yl)ethyl)-3,7-dimethyl-1,2,3,4,8,9-hexahydropyrido[4′,3′:3,4]pyrazolo[1,5-a]pyrazin-10(7H)-one]
- HLM Metabolism t1/2 [1]: 70.9 min
- EC50 [2]: 0.01 µM
- CC50 (HepG2 or HepG2.117 cells): > 50 µM

SMILES: CC(c1cnc(C(C)(C)O)nc1)N1C[C@@H](C)n2nc3c(c2C1=O)CN(C(=O)c1ccc(Cl)c(C(F)(F)F)c1)[C@H](C)C3 (single isomer, unassigned) [Compound 35B, (3R,7R)-2-(4-chloro-3-(trifluoromethyl)benzoyl)-9-((S*)-1-(2-(2-hydroxypropan-2-yl)pyrimidin-5-yl)ethyl)-3,7-dimethyl-1,2,3,4,8,9-hexahydropyrido[4′,3′:3,4]pyrazolo[1,5-a]pyrazin-10(7H)-one]
- HLM Metabolism t1/2 [1]: >180 min
- EC50 [2]: 0.01 µM
- CC50 (HepG2 or HepG2.117 cells): > 50 µM

SMILES: CC(c1cn(C2CC2)c(=O)cn1)N1C[C@@H](C)n2nc3c(c2C1=O)CN(C(=O)c1ccc(Cl)c(Cl)c1)[C@H](C)C3 (single isomer, unassigned) [Compound 56B, (3R,7R)-9-((S*)-1-(4-cyclopropyl-5-oxo-4,5-dihydropyrazin-2-yl)ethyl)-2-(3,4-dichlorobenzoyl)-3,7-dimethyl-1,2,3,4,8,9-hexahydropyrido[4′,3′:3,4]pyrazolo[1,5-a]pyrazin-10(7H)-one]
- HLM Metabolism t1/2 [1]: 91.6 min
- EC50 [2]: 0.084 µM
- CC50 (HepG2 or HepG2.117 cells): > 50 µM

SMILES: CC(c1ccc(N2CCCC2=O)cc1)N1C[C@@H](C)n2nc3c(c2C1=O)CN(C(=O)c1ccc(Cl)c(C#N)c1)[C@H](C)C3 (single isomer, unassigned) [Compound 9B, 2-Chloro-5-((3R,7R)-3,7-dimethyl-10-oxo-9-((S*)-1-(4-(2-oxopyrrolidin-1-yl)phenyl)ethyl)-1,2,3,4,7,8,9,10-octahydropyrido[4′,3′:3,4]pyrazolo[1,5-a]pyrazine-2-carbonyl)benzonitrile]
- HLM Metabolism t1/2 [1]: 110 min
- EC50 [2]: 0.02 µM
- CC50 (HepG2 or HepG2.117 cells): > 50 µM

SMILES: CC(c1ccc(-c2ccn(C)n2)cc1)N1C[C@@H](C)n2nc3c(c2C1=O)CN(C(=O)c1ccc(Cl)c(C#N)c1)[C@H](C)C3 (single isomer, unassigned) [Compound 21B, 2-Chloro-5-((3R,7R)-3,7-dimethyl-9-((S*)-1-(4-(1-methyl-1H-pyrazol-3-yl)phenyl)ethyl)-10-oxo-1,2,3,4,7,8,9,10-octahydropyrido[4′,3′:3,4]pyrazolo[1,5-a]pyrazine-2-carbonyl)benzonitrile]
- HLM Metabolism t1/2 [1]: 150 min
- EC50 [2]: 0.012 µM
- CC50 (HepG2 or HepG2.117 cells): > 50 µM

SMILES: CC(c1ccc(C2(O)CC2)cc1)N1C[C@@H](C)n2nc3c(c2C1=O)CN(C(=O)c1ccc(Cl)c(C#N)c1)[C@H](C)C3 (single isomer, unassigned) [Compound 14B, 2-Chloro-5-((3R,7R)-9-((S*)-1-(4-(1-hydroxycyclopropyl)phenyl)ethyl)-3,7-dimethyl-10-oxo-1,2,3,4,7,8,9,10-octahydropyrido[4′,3′:3,4]pyrazolo[1,5-a]pyrazine-2-carbonyl)benzonitrile]
- HLM Metabolism t1/2 [1]: 70.1 min
- EC50 [2]: 0.015 µM
- CC50 (HepG2 or HepG2.117 cells): > 50 µM

SMILES: CC(c1cnc(NC2CC2)nc1)N1C[C@@H](C)n2nc3c(c2C1=O)CN(C(=O)c1ccc(Cl)c(Cl)c1)[C@H](C)C3 (single isomer, unassigned) [Compound 37B, (3R,7R)-9-((S*)-1-(2-(cyclopropylamino)pyrimidin-5-yl)ethyl)-2-(3,4-dichlorobenzoyl)-3,7-dimethyl-1,2,3,4,8,9-hexahydropyrido[4′,3′:3,4]pyrazolo[1,5-a]pyrazin-10(7H)-one]
- HLM Metabolism t1/2 [1]: 53.5 min
- EC50 [2]: 0.041 µM
- CC50 (HepG2 or HepG2.117 cells): > 50 µM

SMILES: CNC(=O)c1ccc(C(C)N2C[C@@H](C)n3nc4c(c3C2=O)CN(C(=O)c2ccc(Cl)c(Cl)c2)[C@H](C)C4)cn1 (single isomer, unassigned) [Compound 24B, 5-((S*)-1-((3R,7R)-2-(3,4-dichlorobenzoyl)-3,7-dimethyl-10-oxo-1,3,4,7,8,10-hexahydropyrido[4′,3′:3,4]pyrazolo[1,5-a]pyrazin-9(2H)-yl)ethyl)-N-methylpicolinamide]
- HLM Metabolism t1/2 [1]: >180 min
- EC50 [2]: 0.02 µM
- CC50 (HepG2 or HepG2.117 cells): > 50 µM

SMILES: CC(c1ccc(C(C)(C)O)nc1)N1C[C@@H](C)n2nc3c(c2C1=O)CN(C(=O)c1cc(Cl)c(Cl)cn1)[C@H](C)C3 (single isomer, unassigned) [Compound 57B, (3R,7R)-2-(4,5-dichloropicolinoyl)-9-((S*)-1-(6-(2-hydroxypropan-2-yl)pyridin-3-yl)ethyl)-3,7-dimethyl-1,2,3,4,8,9-hexahydropyrido[4′,3′:3,4]pyrazolo[1,5-a]pyrazin-10(7H)-one]
- HLM Metabolism t1/2 [1]: 101 min
- EC50 [2]: 0.65 µM
- CC50 (HepG2 or HepG2.117 cells): > 50 µM
